Here are results for seven molecules from patent US9266904B2, “6-bridged heteroaryldihydropyrimidines for the treatment and prophylaxis of hepatitis B virus infection” (priority 2013, dated 2016).

Structures are written as SMILES. ≈ marks a conversion by molar mass, not a printed value. Where only a bound is given, the exact number is not on record here.

In data set [1] the test system is HBV replication in HepG2.2.15 cells. Description: Anti-HBV activity in vitro in HepG2.2.15 cells (extracellular HBV DNA by qPCR). Format: cell-based. To be noted: Hepatitis B virus, HepG2.2.15, Anti-HBV activity in HepG2.2.15 cells; read-out: EC50. Put shortly:
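Constitutively HBV-producing HepG2.2.15 cells were seeded overnight at 37 °C, then treated with half-log serial dilutions of compound (0.5% DMSO final) for five days. Supernatant HBV DNA was extracted and quantified by qPCR; EC50 is the concentration inhibiting HBV replication by 50%.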
For orientation: Real-time PCR tracks product formation cycle by cycle.

Data set [2] in a line: Cytotoxicity (CCK-8 cell viability) and selectivity index. Format: cell-based, human. To be noted: human, HepDE19 cells; cytotoxicity, concentration resulting in death of 50% of host cells. Put shortly:
(§1)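 HepDE19 cells (5×10^3/well) were treated with compounds as for the EC50 runs and, after 5 days, given CCK-8 for 2 h at 37° C. Absorbance was read at OD450 and OD630, and CC50 was taken as the concentration killing 50% of host cells.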

Data set [3] concerns HepDE19 cells. The data set is described as above. Format: cell-based, human. The settings on record: CC50 value/EC50 value. Put shortly: as §1
Data set [4] is described as follows: Human microsomal clearance assay. It is filed as in vitro ADME. To be noted: human, 1 μM, pH 7.4. The procedure, abridged: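 Liver microsomes (0.5 mg/mL protein) were incubated with 1 μM compound at 37 °C, pH 7.4 phosphate, with an NADPH-regenerating system. Samples at 0-30 min were quenched and measured by LC-MS/MS for parent loss. No-NADPH controls were included.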

The nature of data set [5]: Lyophilisation solubility assay (Lysa). To be noted: pH 6.5, aqueous buffer, thermodynamic from solid. Format: physicochemical. Put shortly:
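DMSO was evaporated from 10 mM stocks, and residues were taken up in 0.05 M phosphate buffer pH 6.5, stirred 1 h, shaken 2 h and left overnight. Filtrates were quantified by UV or HPLC-UV against a four-point calibration, in duplicate. Values are in μg/ml, with a lower-bound value when >80% dissolved.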

The subject of data set [6] is CYP3A4. To be noted: human, 24 h.
Method: Human cryopreserved hepatocytes (Life Technologies, Carlsbad, USA) were thawed and cultured in collagen I coated 96-well plates with a density of 52,000 cells/well. After attachment, medium was changed and cells were pre-cultured overnight in hepatocyte maintenance medium (HMM; Lonza, Switzerland).
Test compounds were dosed to the cells next morning at an indicated concentration (up to 10 μM) in HMM culture media containing gentamycin and a constant 0.1% DMSO. Similarly, dilutions of the positive inducer compounds omeprazole (prototypical inducer of human CYP1A2; final concentrations: 1 and 10 μM), phenobarbital (prototypical inducer of human CYP2B6; final concentrations: 100 and 1000 μM) and rifampicin (prototypical inducer of human CYP3A4; final concentrations: 1 and 10 μM) were prepared from 1000 fold DMSO stock solutions in HMM containing gentamycin. Medium change was then performed and cells were exposed for 24 hours to test compounds, positive inducer compounds, or vehicle (0.1% DMSO), respectively.
At the end of the compound exposure period, medium was removed and cells lysed using 100 μL/well MagNA Pure LC RNA isolation tissue lysis buffer (Roche Diagnostics AG, Rotkreuz, Switzerland). Plates were then sealed and frozen at −80° C. until further workup.
mRNA isolation was performed using the MagNA Pure 96 system (Roche Diagnostics AG, Rotkreuz, Switzerland) and the respective cellular RNA large volume kit (Roche Diagnostics AG, Rotkreuz, Switzerland) from thawed samples diluted 1:1 with PBS. The volume of the cell lysis and an elution volume of 100 μL were used. 20 μL of the resulting mRNA suspension was then used for reverse transcription using 20 μL of the transcript or first stand cDNA synthesis kit (Roche prime Supply, Mannheim, Germany). The resulting cDNA was diluted with 40 μL of H2O before using for qRT-PCR. qRT-PCR was performed by using the forward and the reverse primer, the corresponding UPL (all from Microsynth, Balgach, Switzerland) and the Taqman Fast advanced master mix (Applied Biosystems), on an ABI 7900 machine (Applied Biosystems).
qRT-PCR Ct-values for the respective P450s were put into relation to the Ct-value of RN18S1 (microsynth, Balgach, Switzerland) of the same sample. Doing so, a respective Δct-value was calculated. Using the average of all Δct-values for the vehicle control samples, a ΔΔct-value was calculated for each sample (ΔΔct-value(sample)=Δct-value(sample)−average of Δct-value of all vehicle controls). The fold induction of the respective sample was calculated as 2^(−ΔΔct). The individual fold induction values were then averaged per treatment condition (usually n=3 biological replicates).
Relative induction values to the respective positive inducer compound condition (10 μM omeprazole for CYP1A2; 1000 μM Phenobarbital for CYP2B6; 10 μM rifampicin for CYP3A4) were then calculated from the fold induction values as follows: Relative induction(%)=100×(T−V)/(P−V)
T: fold induction of test compound condition
P: fold induction of positive inducer compound
V: fold induction of vehicle controls
Data set [7] relates to HBV. The settings on record: HBV infected transgenic mouse or humanized mouse models; cited from earlier work.

One may read the EC50 as the concentration at which the effect is half-maximal. Usually CC50 stands for the concentration at which the toxic effect on the cells reaches its halfway point. Low values mean greater toxicity to the cells, high ones lower toxicity to the cells. The term solubility (thermodynamic) denotes the concentration in solution at equilibrium with solid.

Take `COC(=O)C1=C(CN2C3COCC2CC(CC(=O)O)C3)NC(c2nccs2)=N[C@H]1c1ccc(F)c(F)c1Cl` (stereo partly drawn) [Example 135, Endo-2-[9-[[(4R)-4-(2-chloro-3,4-difluoro-phenyl)-5-methoxycarbonyl-2-thiazol-2-yl-1,4-dihydropyrimidin-6-yl]methyl]-3-oxa-9-azabicyclo[3.3.1]nonan-7-yl]acetic acid]: the concentration giving a half-maximal response (EC50) in data set [1] is 6.5 nM. The same molecule displayed a CC50 at 5 days in data set [2] greater than 100000 nM. The “Selectivity index (CC50/EC50)” value in data set [3] is reported as greater than 15385. In addition, in data set [4], the CLh is 4.2 mL/min/kg. The thermodynamic solubility in data set [5] was 533 µg/mL (≈ 940 µM). The “% of Positive control (10 μM Rifampicin)” value in data set [6] is given as 27%.

With `COC(=O)C1=C(CN2C3COCC2CC(CC(=O)O)C3)NC(c2nccs2)=N[C@H]1c1ccc(F)cc1Cl` (stereo partly drawn) [Example 24, (R)-6-(7-Carboxymethyl-3-oxa-9-aza-bicyclo[3.3.1]non-9-ylmethyl)-4-(2-chloro-4-fluoro-phenyl)-2-thiazol-2-yl-1,4-dihydro-pyrimidine-5-carboxylic acid methyl ester], the 50% effective concentration (EC50) in data set [1] came to 13 nM. Moreover, in data set [2], the 50% cytotoxic concentration (CC50) at 5 days was greater than 100000 nM. The “Selectivity index (CC50/EC50)” value in data set [3] was greater than 7692. Also, in data set [4], the CLh turned out to be 2.6 mL/min/kg. Further, the thermodynamic solubility in data set [5] is greater than 621 µg/mL. Also, the “% of Positive control (10 μM Rifampicin)” value in data set [6] was found to be 29%.

As to `COC(=O)C1=C(C)NC(c2ncc(F)cc2F)=N[C@H]1c1ccc(F)cc1Cl` [Bay 41-4109], in data set [7], the “in vivo efficacy (HBV DNA reduction)” value is on record as “demonstrated in vivo efficacy with HBV DNA reduction”.

With `CCOC(=O)C1=C(CN2[C@@H]3COC[C@H]2C[C@H](CC(=O)O)C3)NC(c2nccs2)=N[C@H]1c1ccc(F)c(F)c1Cl` [Example 69, Exo-2-[(1S,5R)-9-[[(4R)-4-(2-chloro-3,4-difluoro-phenyl)-5-ethoxycarbonyl-2-thiazol-2-yl-1,4-dihydropyrimidin-6-yl]methyl]-3-oxa-9-azabicyclo[3.3.1]nonan-7-yl]acetic acid], in data set [1], the EC50 was determined as 3.1 nM. The molecule further had a cytotoxic concentration (CC50) at 5 days in data set [2] greater than 100000 nM. Besides, the “Selectivity index (CC50/EC50)” value in data set [3] was greater than 32258. The CLh in data set [4] was 2.4 mL/min/kg. The solubility (thermodynamic) in data set [5] was 203 µg/mL (≈ 349 µM). Further, in data set [6], the “% of Positive control (10 μM Rifampicin)” value amounted to 21%.

As to `CCOC(=O)C1=C(CN2C3COCC2CC(CC(=O)O)C3)NC(c2nccs2)=N[C@H]1c1ccc(F)cc1Cl` (stereo partly drawn) [Example 26, (R)-6-(7-Carboxymethyl-3-oxa-9-aza-bicyclo[3.3.1]non-9-ylmethyl)-4-(2-chloro-4-fluoro-phenyl)-2-thiazol-2-yl-1,4-dihydro-pyrimidine-5-carboxylic acid ethyl ester], in data set [1], the 50% effective concentration (EC50) is 13 nM. This molecule showed a cytotoxic concentration (CC50) at 5 days in data set [2] of 68000 nM. In addition, the “Selectivity index (CC50/EC50)” value in data set [3] is recorded as 5231. This molecule showed a CLh in data set [4] of 3.5 mL/min/kg. This molecule also gave a solubility (thermodynamic) in data set [5] of 470 µg/mL (≈ 835 µM). For the same molecule, the “% of Positive control (10 μM Rifampicin)” value in data set [6] is reported as 36%.

`CCOC(=O)C1=C(CN2[C@@H]3COC[C@H]2C[C@H](CC(=O)O)C3)NC(c2nccs2)=N[C@H]1c1ccc(F)c(F)c1Br` [Example 80, Exo-2-[(1S,5R)-9-[[(4R)-4-(2-bromo-3,4-difluoro-phenyl)-5-ethoxycarbonyl-2-thiazol-2-yl-1,4-dihydropyrimidin-6-yl]methyl]-3-oxa-9-azabicyclo[3.3.1]nonan-7-yl]acetic acid]: in data set [1], the concentration giving a half-maximal response (EC50) turned out to be 1.7 nM. In addition, it took 38000 nM to reach half-maximal cytotoxicity in data set [2] (CC50 at 5 days). Besides, the “Selectivity index (CC50/EC50)” value in data set [3] is 22394. The same molecule displayed a CLh in data set [4] of 4.6 mL/min/kg. The molecule also registered a thermodynamic solubility in data set [5] of 221 µg/mL (≈ 353 µM). Further, the “% of Positive control (10 μM Rifampicin)” value in data set [6] was found to be 35%.

For the molecule `COC(=O)C1=C(CN2[C@@H]3COC[C@H]2C[C@H](CC(=O)O)C3)NC(c2nccs2)=N[C@H]1c1ccc(F)c(F)c1Cl` [Example 73, Exo-2-[(1S,5R)-9-[[(4R)-4-(2-chloro-3,4-difluoro-phenyl)-5-methoxycarbonyl-2-thiazol-2-yl-1,4-dihydropyrimidin-6-yl]methyl]-3-oxa-9-azabicyclo[3.3.1]nonan-7-yl]acetic acid], the EC50 in data set [1] turned out to be 3 nM. This molecule yielded a CC50 at 5 days in data set [2] of 72000 nM. Also, the “Selectivity index (CC50/EC50)” value in data set [3] is recorded as 24083. For the same molecule, the CLh in data set [4] came to 3.6 mL/min/kg. This molecule also gave a thermodynamic solubility in data set [5] greater than 654 µg/mL. Besides, in data set [6], the “% of Positive control (10 μM Rifampicin)” value was determined as 21%.
